# Assay results reported in ChEMBL document CHEMBL4699469, “Recent Developments in the Biology and Medicinal Chemistry of CDK9 Inhibitors: An Update” (J Med Chem, 2020).
# Tests used:
# [1] = target: T1, Protein cereblon/Cyclin-dependent kinase 9 (Homo sapiens, UniProt P50750+Q96SW2); test: Induction of CRBN-mediated CDK9 degradation in human MCF-7 cells after 24 hrs by Western analysis; assay type: cell-based; details: mcf7
# [2] = target: T2, Cyclin-dependent kinase 2/cyclin E1 (Homo sapiens, UniProt P24941); test: Inhibition of His-tagged human CDK2/cyclin E1 expressed in insect cells using biotin Ttds-YISPLKSPYKISEG as substrate preincubated for 15 mins followed by ATP and substrate addition and measured after 25 mins by TR-FRET assay
# [3] = target: T3, CDK9/cyclin T1 (Homo sapiens, UniProt P50750); test: Displacement of Alexa Fluor 647 ADP Tracer from His-tagged human CDK9/Cyclin T1 expressed in baculovirus expression system incubated for 1 hr by adapta assay
# [4] = target: CDK7/Cyclin H/MNAT1 (Homo sapiens, UniProt P50613); test: Displacement of Alexa Fluor 647 ADP Tracer from human CDK7/CyclinH/MAT1 expressed in baculovirus expression system incubated for 1 hr by adapta assay
# [5] = system: MOLT-4; test: Antiproliferative activity against human MOLT4 cells incubated for 72 hrs by cell titer glo assay; assay type: functional, cell-based; details: MOLT-4, 72 h
# [6] = target: T1, Protein cereblon/Cyclin-dependent kinase 9; test: Induction of CRBN-mediated CDK9 degradation in human HCT116 cells assessed as reduction in CDK9 level incubated for 6 hrs by Western blot analysis; assay type: cell-based; details: hct-116
# [7] = target: T4, Cyclin-dependent kinase 9 (Homo sapiens, UniProt P50750)
# [8] = Solubility of the compound at pH 6.8; assay type: physicochemical; details: buffer
# [9] = Solubility of the compound at pH 8.7; assay type: physicochemical; details: buffer
# [10] = Oral bioavailability in mouse; assay type: ADME, organism-based; details: in vivo
# [11] = system: MV4-11; test: Antitumor activity against human MV4-11 cells xenografted in mouse assessed as tumor growth inhibition at 7.5 mg/kg relative to control; assay type: functional; details: read-out: TGI
# [12] = target: T5, Cyclin-dependent kinase 7 (Homo sapiens, UniProt P50613); test: Binding affinity to wild-type human full length CDK7 (M1 to L344 residues) expressed in mammalian expression system by Kinomescan method
# [13] = target: T4, Cyclin-dependent kinase 9; test: Binding affinity to wild-type human full length CDK9 (M1 to F372 residues) expressed in bacterial expression system by Kinomescan method
# [14] = target: T3, CDK9/cyclin T1; test: Inhibition of His-tagged human CDK9/cyclin T1 expressed in insect cells using biotin Ttds-YISPLKSPYKISEG as substrate preincubated for 15 mins followed by ATP and substrate addition and measured after 25 mins by TR-FRET assay
# [15] = target: T2, Cyclin-dependent kinase 2/cyclin E1; test: Inhibition of His-tagged human CDK2 (M1 to L298 residue)/cyclin E1 (M1 to A395 residue) expressed in sf9 insect cells using biotin Ttds-YISPLKSPYKISEG as substrate preincubated for 15 mins followed by ATP and substrate addition and measured after 25 mins by TR-FRET assay
# [16] = system: MOLM-13; test: Antiproliferative activity against human MOLM-13 cells incubated for 72 hrs by Cell Titre-Glo luminescent assay; assay type: functional, cell-based; details: MOLM-13, 72 h
# [17] = system: A2780; test: Antiproliferative activity against human A2780 cells incubated for […] by crystal violet staining based assay; assay type: functional, cell-based
# [18] = target: T4, Cyclin-dependent kinase 9; test: Inhibition of CDK9 (unknown origin) assessed as reduction in RNA polymerase2 phosphorylation at serine 2 residue by cell based assay
# [19] = target: Cyclin-dependent kinase 1 (Homo sapiens, UniProt P06493); test: Inhibition of CDK1 (unknown origin)
# [20] = target: Cyclin-dependent kinase 2 (Homo sapiens, UniProt P24941)
# [21] = target: Cyclin-dependent kinase 4 (Homo sapiens, UniProt P11802); test: Inhibition of CDK4 (unknown origin)
# [22] = target: T5, Cyclin-dependent kinase 7; test: Inhibition of CDK7 (unknown origin)
# [23] = system: MOLM-13; test: Antiproliferative activity against human MOLM-13 cells; assay type: functional, cell-based
compound,measurement,setting,value
O=C1CCC(N2C(=O)c3cccc(NC(=O)CCCCCn4cc(COc5c(O)cc(O)c6c(=O)cc(-c7ccccc7)oc56)nn4)c3C2=O)C(=O)N1 (configuration not stated),DC50,[1],10000 nM
COc1cc(F)ccc1-c1ncnc(Nc2cccc(CCS(C)(=O)=O)c2)n1,IC50,[2],558 nM
COC[C@H](C)N[C@H]1CC[C@H](Nc2cc(-c3cccc(NCC4(C#N)CCOCC4)n3)c(Cl)cn2)CC1,IC50,[3],< 0.5 nM
same,IC50,[4],> 10000 nM
same,IC50,[5],9 nM
O=C1CCC(N2C(=O)c3cccc(OCCCCCOc4ccc(CC(=O)Nc5cc(C6CCC6)n[nH]5)cc4)c3C2=O)C(=O)N1 (configuration not stated),DC50,[6],8000 nM
CN1CC[C@H](c2c(OP(=O)(O)O)cc(O)c3c(=O)cc(-c4ccccc4Cl)oc23)[C@H](O)C1 [TP-1287],IC50,[7],84 nM
same,solubility,[8],9500 µg/mL
same,solubility,[9],9300 µg/mL
same,F,[10],182.3%
same,inhibition in vivo at 7.5 mg/kg,[11],109%
Cn1ncc(-c2nc(N[C@H]3CC[C@H](N)CC3)ncc2Cl)c1CC1CC1 [BTX-A51],Kd,[12],1.3 nM
same,Kd,[13],4 nM
CC(C)(C)c1cnc(CSc2cnc(NC(=O)C3CCNCC3)s2)o1 [BMS-387032],IC50,[5],173 nM
CS(=N)(=N)Cc1cc2cc(c1)OCCCCOc1c(F)cccc1-c1nc(ncc1F)N2,IC50,[14],3.4 nM
same,IC50,[15],7520 nM
same,IC50,[16],126 nM
COc1cc(F)ccc1-c1ncnc(Nc2cccc(S(C)(=O)=O)c2)n1,IC50,[2],608 nM
Cc1cc(CS(C)(=O)=O)cc(Nc2ncc(F)c(-c3ccc(F)c4ccoc34)n2)c1,IC50,[16],46 nM
same,IC50,[17],38 nM
COc1cc(F)ccc1-c1cc(NC(=O)[C@H]2CCC[C@@H](NC(C)=O)C2)ncc1Cl,IC50,[18],96 nM
same,IC50,[19],94 nM
same,IC50,[20],2460 nM
same,IC50,[21],3250 nM
same,IC50,[22],> 5000 nM
same,IC50,[7],< 5 nM
COc1cc(F)ccc1-c1cc(Nc2cc(CS(C)(=N)=O)ccn2)ncc1F (configuration not stated) [ENITOCICLIB],IC50,[23],29 nM
